Data: patent US7141569B2, “Antiviral pyrazolopyridine compounds” (SmithKline Beecham Corporation, priority 2001, dated 2006)

Tested on: HSV-1
Assay: HSV-1 infection of Vero 76 cells, viral DNA detected by hybridization capture (chemiluminescence)
Format: cell-based
Details: Human alphaherpesvirus 1; HSV-1 in Vero 76 cells, MOI=0.001, compounds incubated 40–48 hours at 37° C.
Experimental: Vero 76 cells were maintained in MEM with Earle's salts, L-glutamine, 8% FBS (Hyclone, A-1111-L) and 100 units/mL Penicillin-100 μg/mL Streptomycin. For assay conditions, FBS was reduced to 2%. Cells are seeded into 96-well tissue culture plates at a density of 5×10^4 cells/well after being incubated for 45 min at 37° C. in the presence of HSV-1 or HSV-2 (MOI=0.001). Test compounds are added to the wells and the plates are incubated at 37° C. for 40–48 hours. Cell lysates are prepared as follows: media was removed and replaced with 150 μL/well 0.2 N NaOH with 1% Igepal CA 630 or NP-40. Plates were incubated up to 14 days at room temperature in a humidified chamber to prevent evaporation.
For the detection probe, a gel-purified, digoxigenin-labeled, 710-bp PCR fragment of the HSV UL-15 sequence was utilized. PCR conditions included 0.5 μM primers, 180 μM dTTP, 20 μM dUTP-digoxigenin (Boehringer Mannheim 1558706), 200 μM each of dATP, dCTP, and dGTP, 1×PCR Buffer II (Perkin Elmer), 2.5 mM MgCl2, 0.025 units/μL of AmpliTaq Gold polymerase (Perkin Elmer), and 5 ng of gel-purified HSV DNA per 100 μL Extension conditions were 10 min at 95° C., followed by 30 cycles of 95° C. for 1 min, 55° C. for 30 sec. and 72° C. for 2 min. The amplification was completed with a 10-min incubation at 72° C. Primers were selected to amplify a 728 bp probe spanning a section of the HSV1 UL15 open reading frame (nucleotides 249–977). Single-stranded transcripts were purified with Promega M13 Wizard kits. The final product was mixed 1:1 with a mixture of 6 M GuSCN, 100 mM EDTA and 200 μg/mL herring sperm DNA and stored at 4° C.
The capture DNA plasmid (HSV UL13 region in pUC) was linearized by cutting with Xba I, denatured for 15 min at 95° C. and diluted immediately into Reacti-Bind DNA Coating Solution (Pierce, 17250, diluted 1:1 with TE buffer, pH 8) at 1 ng/μL 75 μL/well were added to Corning (#3922 or 9690) white 96-well plates and incubated at room temperature for at least 4 hrs before washing twice with 300 μL/well 0.2×SSC/0.05% Tween-20 (SSC/T buffer). The plates were then incubated overnight at room temperature with 150 μL/well 0.2 N NaOH, 1% IGEPAL and 10 μg/mL herring sperm DNA.
Twenty-seven (27) μL of lysate was combined with 45 μL of hybridization solution (final concentration: 3M GuSCN, 50 mM EDTA, 100 μg/ml salmon sperm DNA, 5×Denhardt's solution, 0.25×APE, and 5 ng of the digoxigenin-labeled detection probe). APE is 1.5 M NH4-acetate, 0.15 M NH4H2 phosphate, and 5 mM EDTA adjusted to pH 6.0 Mineral oil (50 μL) was added to prevent evaporation. The hybridization plates were incubated at 95° C. for 10 minutes to denature the DNA, then incubated at 42° C. overnight. The wells were washed 6× with 300 μl/well SSC/T buffer then incubated with 75 μL/well anti-digoxigenin-HRP-conjugated antibody (Boehringer Mannheim 1207733, 1:5000 in TE) for 30 min at room temperature. The wells were washed 6× with 300 μL/well with PBS/0.05% Tween-20 before 75 μL/well SuperSignal LBA substrate (Pierce) was added. The plates were incubated at room temperature for 30 minutes and chemiluminescence was measured in a Wallac Victor reader.

Structure (SMILES)	IC50
CS(=O)(=O)Nc1ccn2nc(-c3ccc(F)cc3)c(-c3ccnc(NC4CCCC4)n3)c2c1 [Example 4, N-[3-[2-(Cyclopentylamino)-4-pyrimidinyl]-2-(4-fluorophenyl)pyrazolo[1,5-α]pyridin-5-yl]methanesulfonamide]	2000 nM
CC(C)Nc1ccc2c(-c3ccnc(NC4CCCC4)n3)c(-c3ccc(F)cc3)nn2c1 [Example 7, 3-[2-(Cyclopentylamino)-4-pyrimidinyl]-2-(4-fluorophenyl)-N-isopropylpyrazolo[1,5-α]pyridin-6-amine]	1200 nM
COCCNc1ccn2nc(-c3ccc(F)cc3)c(-c3ccnc(NC4CCCC4)n3)c2c1 [Example 8, 3-[2-(Cyclopentylamino)-4-pyrimidinyl]-2-(4-fluorophenyl)-N-(2-methoxyethyl)pyrazolo[1,5-α]pyridin-5-amine]	1000 nM
COc1ccc(-c2nn3ccc(NC4CCCC4)c(Br)c3c2-c2ccnc(NC3CCCC3)n2)cc1 [Example 15, 4-Bromo-N-cyclopentyl-3-[2-(cyclopentylamino)pyrimidin-4-yl]-2-(4-methoxyphenyl)pyrazolo[1,5-α]pyridin-5-amine]	3500 nM
COc1ccc(-c2nn3ccc(NC4CCCC4)c(Cl)c3c2-c2ccnc(NC3CCCC3)n2)cc1 [Example 16, 4-Chloro-N-cyclopentyl-3-[2-(cyclopentylamino)pyrimidin-4-yl]-2-(4-methoxyphenyl)pyrazolo[1,5-α]pyridin-5-amine]	2800 nM
Oc1ccc(-c2nn3ccc(NC4CCCC4)cc3c2-c2ccnc(NC3CCCC3)n2)cc1 [Example 18, 4-{5-(Cyclopentylamino)-3-[2-(cyclopentylamino)-4-pyrimidinyl]pyrazolo[1,5-α]pyridin-2-yl}phenol]	1200 nM
CC(C)COc1ccc(-c2nn3ccc(NC4CCCC4)cc3c2-c2ccnc(NC3CCCC3)n2)cc1 [Example 19, N-Cyclopentyl-3-[2-(cyclopentylamino)-4-pyrimidinyl]-2-(4-isobutoxyphenyl)pyrazolo[1,5-α]pyridin-5-amine]	500 nM
c1cc(-c2c(-c3ccc(OCC4CC4)cc3)nn3ccc(NC4CCCC4)cc23)nc(NC2CCCC2)n1 [Example 20, N-Cyclopentyl-3-[2-(cyclopentylamino)-4-pyrimidinyl]-2-[4-(cyclopropylmethoxy)phenyl]pyrazolo[1,5-α]pyridin-5-amine]	300 nM

Now from value to molecule:

IC50	Structure (SMILES)
500 nM	Fc1ccc(-c2nn3ccc(NC4CCCC4)cc3c2-c2ccnc(NC3CCCC3)n2)cc1 [Example 2, N-Cyclopentyl-3-[2-(cyclopentylamino)-4-pyrimidinyl]-2-(4-fluorophenyl)pyrazolo[1,5-α]pyridin-5-amine]
5000 nM	Nc1ccn2nc(-c3ccc(F)cc3)c(-c3ccnc(NC4CCCC4)n3)c2c1 [Example 3, 3-[2-(Cyclopentylamino)-4-pyrimidinyl]2-(4-fluorophenyl)pyrazolo[1,5-α]pyridin-5-amine]
240 nM	Nc1ccc2c(-c3ccnc(NC4CCCC4)n3)c(-c3ccc(F)cc3)nn2c1 [Example 5, 3-[2-(cyclopentylamino)-4-pyrimidinyl]-2-(4-fluorophenyl)pyrazolo[1,5-α]pyridin-6-amine]
1000 nM	Fc1ccc(-c2nn3cc(NC4CCCC4)ccc3c2-c2ccnc(NC3CCCC3)n2)cc1 [Example 6, N-Cyclopentyl-3-[2-(cyclopentylamino)-4-pyrimidinyl]-2-(4-fluorophenyl)pyrazolo[1,5-α]pyridin-6-amine]
2900 nM	CC(C)Nc1ccn2nc(-c3ccc(F)cc3)c(-c3ccnc(NC4CCCC4)n3)c2c1 [Example 9, 3-[2-(Cyclopentylamino)-4-pyrimidinyl]-2-(4-fluorophenyl)-N-isopropylpyrazolo[1,5-α]pyridin-5-amine]
200 nM	COc1ccc(-c2nn3ccc(NC4CCCC4)cc3c2-c2ccnc(NC3CCCC3)n2)cc1 [Example 10, N-Cyclopentyl-3-[2-(cyclopentylamino)-4-pyrimidinyl]-2-(4-methoxyphenyl)-pyrazolo[1,5-α]pyridin-5-amine]
800 nM	COc1ccc(-c2nn3ccc(NC(C)C)cc3c2-c2ccnc(NC3CCCC3)n2)cc1 [Example 12, 3-[2-(Cyclopentylamino)-4-pyrimidinyl]-N-isopropyl-2-(4-methoxyphenyl)pyrazolo[1,5-α]pyridin-5-amine]
3000 nM	Fc1ccc(-c2nn3ccc(NC4CCCC4)c(Br)c3c2-c2ccnc(NC3CCCC3)n2)cc1 [Example 13, 4Bromo-N-cyclopentyl-3-[2-(cyclopentylamino)pyrimidin-4-yl]-2-(4-fluorophenyl)pyrazolo[1,5-α]pyridin-5-amine]
1900 nM	Fc1ccc(-c2nn3ccc(NC4CCCC4)c(Cl)c3c2-c2ccnc(NC3CCCC3)n2)cc1 [Example 14, 4-Chloro-N-cyclopentyl-3-[2-(cyclopentylamino)pyrimidin-4-yl]-2-(4-fluorophenyl)pyrazolo[1,5-α]pyridin-5-amine]
2500 nM	CCCCNc1cc(-c2c(-c3ccc(F)cc3)nn3cccc(NCCCC)c23)ccn1 [Example 17, N-Butyl-3-[2-(butylamino)pyridin-4-yl]-2-(4-fluorophenyl)pyrazolo[1,5-α]pyridin-4-amine]
